Assay: Relative solubility of the physical forms
Assay type: physicochemical
Conditions: monohydrate as impurity in the anhydrous form

- solubility compared with the anhydrous form: less soluble
Compound: CC(O)C(=O)O.CN1CCN(c2ccc3nc(-c4c(N)c5c(F)cccc5[nH]c4=O)[nH]c3c2)CC1 [monohydrate form, 4-amino-5-fluoro-3-[5-(4-methylpiperazin-1-yl)-1H-benzimidazol-2-yl]quinolin-2(1H)-one lactic acid salt]
